Test results as given in patent US9969709B2, “Guanidinobenzoic acid ester compound” (Takeda Pharmaceutical Company Limited, priority 2013, dated 2018).
Where a name gives a salt, the structure may show the parent alone.

Experiments:
Wistar rats = test: Rat uninephrectomy doxorubicin (DXR)-induced nephropathy model (renal function reduced model); type: in vivo; conditions: 10 mg/kg oral twice daily, week 3, vs control group
Experimental: 3. Test of Rat Uninephrectomy Doxorubicin (DXR)-Induced Nephropathy Model (Renal Function Reduced Model) Uninephrectomy was performed in the left kidney of 10-week old male Wistar rats, and one week later, DXR (5 mg/kg) was administered to the rats via the caudal vein to induce a nephropathy model. The experiment was carried out in ten rats per group. During the period of administering the compound, the rats were fed with diet only in daytime, while fasted in nighttime. A test compound (10 mg/kg) was suspended in a 0.5% methylcellulose (MC) solution from the day after the preparation of the model, and was forcibly orally administered twice (morning and night) daily. To each of a sham (normal) group and a control group, 0.5% MC was forcibly orally administered. At 1, 2, and 3 weeks after the start of administration of the test compound, 24-hour urine collection was each performed to measure the amount of the protein excretion in urine. Blood collection was performed after the end of the urine collection at week 3, and the concentration of creatinine in plasma was measured.

[1] = target: T1, human recombinant trypsin (rh-trypsin) (Homo sapiens, UniProt P07477); test: Trypsin inhibitory activity, human recombinant trypsin, BZiPAR fluorescent substrate; type: biochemical; conditions: 30 min at room temperature, read-out: r-h Trypsin inhibitory activity (IC50)
T1 construct: purchased Wako Pure Chemical Industries, Ltd. 206-17171
Experimental: (§1) 1. Confirmation of Trypsin Inhibitory Activity in Humans and Mice In the experiment, human recombinant trypsin (rh-trypsin; manufactured by Wako Pure Chemical Industries, Ltd.), cat. #206-17171) and mouse trypsin (m-trypsin; purified from the mouse small intestine contents by the present inventors) were used. The method for purifying m-trypsin from the contents of the mouse small intestine is shown below. The compound was dissolved in dimethyl sulfoxide (DMSO), and diluted to an arbitrary concentration (A). A was 100-fold diluted with a buffer (0.1 M Tris (pH 8.0), 0.15 M NaCl, 10 mM CaCl2, 0.05% Brij35) (B). The rh-trypsin was diluted with a buffer to 0.088 μg/mL, and for the m-trypsin, the purified fraction liquid was 50-fold diluted with the buffer (C). […] A BZiPAR solution (Rhodamine Reference Substrate) which is substrate for the trypsin enzyme was diluted with the buffer to […] (D). 5 μL of B, 5 μL of C, and 10 μL of D were added to a 384-well plate, and incubated at room temperature for 30 minutes. Fluorescent signals were detected at a maximum excitement (Ex)/fluorescent wavelength (Em)=497 nm/520 nm using a Tecan Safire Fluorometer. […] Based on the obtained inhibitory rates, the trypsin inhibitory activities (IC50 values, nM) were calculated from the non-linear regression.

[2] = test system: T2, mouse trypsin (m-trypsin); test: Trypsin inhibitory activity, mouse trypsin purified from small intestine contents, BZiPAR fluorescent substrate; type: biochemical; conditions: 30 min at room temperature
T2 construct: mouse trypsin (m-trypsin)
Description: 1. Confirmation of Trypsin Inhibitory Activity in Humans and Mice
In the experiment, human recombinant trypsin (rh-trypsin; manufactured by Wako Pure Chemical Industries, Ltd.), cat. #206-17171) and mouse trypsin (m-trypsin; purified from the mouse small intestine contents by the present inventors) were used. The method for purifying m-trypsin from the contents of the mouse small intestine is shown below.
The small intestine contents and the gastrointestinal tract obtained from 10 mice were homogenized in phosphate buffer saline (PBS) using Polytron, and subjected to centrifugation several times at 15,000×g for 10 minutes. The supernatant was mixed at 4° C. for 16 hours with a Benzamidine Sepharose 4 Fast Flow Resin (GE Healthcare: #17-5123-10). After washing the resin with PBS, m-trypsin was eluted with a glycine buffer (pH 3.0) to carry out purification. It was confirmed by Western blot analysis that the obtained purified fraction was recognized as an Anti-mouse Trypsin Antibody (Santa Cruz Biotechnology, Inc.: sc-67388). The method for measuring the trypsin inhibiting activity is shown below.
as §1, with “The” for “1. Confirmation of Trypsin Inhibitory Activity in Humans and Mice In the experiment, human recombinant trypsin (rh-trypsin; manufactured by Wako Pure Chemical Industries, Ltd.), cat. #206-17171) and mouse trypsin (m-trypsin; purified from the mouse small intestine contents by the present inventors) were used. The method for purifying m-trypsin from the contents of the mouse small intestine is shown below. The”

ICR mice = test: Test of increase in fecal protein concentration using mice; type: in vivo, mouse; conditions: Mus musculus, po, 9 h, 5 mg/kg oral, male ICR mice, feces collected 3 to 9 hours after feeding started, control group = 1; read-out: Fecal protein, Folds (vs. control)
Experimental: 2. Test of Increase in Fecal Protein Concentration Using Mice
For the experiment, 6-week old male ICR mice were used. The experiment was carried out in five mice per group. After fasting the mice for 15 hours, the control group was forcibly orally administered with a 0.5% methyl cellulose (MC) solution, and the test drug group was forcibly orally administered (5 mg/kg) with a solution or suspension obtained by dissolving or suspending the compound in the 0.5% MC solution. The fasting was stopped immediately thereafter, free feeding (CE-2) was started, and then the feces were collected from after 3 hours to after 9 hours, and weighed. All of the obtained feces were suspended in 6 mL of distilled water, and centrifuged at 1,940×g for 10 minutes. The protein concentration in the obtained supernatant was measured by a Bradford method, and the amount of the protein in 1 g of feces was calculated by dividing the protein concentration in the feces by the total weight of feces. Further, the efficacy was investigated from the ratio to the control group. For the compounds that were evaluated multiple times, the average values were calculated.
The results of the activities with an increase in Fecal Protein, assuming a value for the control group as 1, are shown in Table 2.

| IC50 [1] | IC50 [2] | SMILES | inhibitory rate of the amount of protein excretion in urine (Wistar rats) | inhibitory rate of the creatinine concentration in plasma (Wistar rats) | response vs control in vivo at 5 mg/kg (ICR mice) |
| --- | --- | --- | --- | --- | --- |
| 0.4 nM | 0.51 nM | Cl.N=C(N)Nc1ccc(C(=O)Oc2ccc3c(c2)CCCC3CC(=O)N(CC(=O)O)Cc2cccc(C(=O)O)c2)cc1 (centres unmarked) [Example 2, 3-{[({6-[(4-carbamimidamnidobenzoyl)oxy]-1,2,3,4-tetrahydronaphthalen-1-yl}acetyl)(carboxymethyl)amino]methyl}benzoic acid monohydrochloride] | about 42% | about 42% | 255% |
| 0.31 nM | 0.41 nM | N=C(N)Nc1ccc(C(=O)Oc2ccc3cc(C(=O)N(CC(=O)O)Cc4csc(C(=O)O)c4)ccc3c2)cc1 [Example 1, 4-{[{6-[(4-carbamimidamidobenzoyl)oxy]-2-naphthoyl}(carboxymethyl)amino]methyl}thiophene-2-carboxylic acid monohydrochloride] |  |  | 200% |
| 0.22 nM | 0.27 nM | N=C(N)Nc1ccc(C(=O)Oc2ccc3c(C(=O)N(CC(=O)O)Cc4ccc(CC(=O)O)cc4)cccc3c2)cc1 [Example 17] |  |  | 270% |
| 0.21 nM | 0.22 nM | N=C(N)Nc1ccc(C(=O)Oc2ccc3c(C(=O)N[C@@H](Cc4ccc(C(=O)O)cc4)C(=O)O)cccc3c2)cc1 [Example 3, N-{6-[(4-carbamimidamidobenzoyl)oxy]-1-naphthoyl}-4-carboxy-L-phenylalanine monohydrochloride] |  |  | 209% |
